Measurements from patent US10774071B2, “PD-1/PD-L1 inhibitors” (Gilead Sciences, Inc., priority 2018, dated 2020).
pIC50: −log10 of the molar value. Where two headings read alike, the source gives them in different places.

How the values were obtained:
PD-1/PD-L1 = PD-1/PD-L1 (Homo sapiens (Human), UniProt Q9NZQ7); experiment: PD-1/PD-L1 biochemical protein-protein interaction assay (ALPHA); type: binding; details: read-out: IC50 PD-L1-PD1
PD-L1 = PD-L1 (Homo sapiens (Human), UniProt Q9NZQ7); experiment: PD-L1/PD-L1 dimerization biochemical protein-protein interaction assay (ALPHA); type: binding; details: read-out: AC50 PDL1 Dimer 1 nM
[1] = 0.3 nM His tagged PD-L1, 2.5 nM biotinylated Fc-PD-1, readings of 0.064 nM are equal to or less than 0.064 nM
[2] = 0.5 nM His tagged PD-L1 and 0.5 nM FLAG tagged PD-L1, Table 4A
[3] = 0.3 nM His tagged PD-L1, 2.5 nM biotinylated Fc-PD-1, Table 3B
[4] = 0.5 nM His tagged PD-L1 and 0.5 nM FLAG tagged PD-L1, Table 4B

Sequence of PD-L1 (Q9NZQ7 19-238): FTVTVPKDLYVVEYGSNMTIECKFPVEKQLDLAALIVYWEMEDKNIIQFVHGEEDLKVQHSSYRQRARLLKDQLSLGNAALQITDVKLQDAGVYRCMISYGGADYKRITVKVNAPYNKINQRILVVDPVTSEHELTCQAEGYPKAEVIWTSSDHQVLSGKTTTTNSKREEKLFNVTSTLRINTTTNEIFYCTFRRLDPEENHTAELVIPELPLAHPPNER
Sequence of PD-L1 (Q9NZQ7 19-238): as above
Sequence of PD-1/PD-L1 (Q9NZQ7 19-238): as above

Row | Structure (SMILES) | pIC50 (PD-1/PD-L1; [1]) | AC50 (PD-L1; [2]) [nM] | pIC50 (PD-1/PD-L1; [3]) | AC50 (PD-L1; [4]) [nM]
1 | CNC(=O)CNCc1nc(C(F)(F)F)c(N[C@H]2CCc3c(-c4cccc(-c5ccc(CNC[C@@H]6CCC(=O)N6)c(OC)n5)c4Cl)cccc32)nc1OC [A-88] | 9.69 | 60.4 |  | 
2 | COc1nc(-c2cccc(-c3cccc4c3CC[C@@H]4Nc3nc(OC)c(CNCCC(=O)O)cc3C(F)(F)F)c2Cl)ccc1CN[C@H]1C[C@](C)(O)C1 [A-89] | 10.14 | 81.8 |  | 
3 | COc1nc(-c2cccc(-c3cccc4c3CC[C@@H]4Nc3nc(OC)c(CN[C@H](C(=O)O)C4CC4)cc3C(F)(F)F)c2Cl)ccc1CN[C@H]1C[C@](C)(O)C1 [A-90] | ≥ 10.19 | 21.6 |  | 
4 | COC[C@H](NCc1cc(C(F)(F)F)c(N[C@H]2CCc3c(-c4cccc(-c5ccc(CN[C@H]6C[C@](C)(O)C6)c(OC)n5)c4Cl)cccc32)nc1OC)C(=O)O [A-91] | ≥ 10.19 | 42.7 |  | 
5 | COc1nc(-c2cccc(-c3cccc4c3CC[C@@H]4Nc3nc(OC)c(CNC(C)(C)C(=O)O)cc3C(F)(F)F)c2Cl)ccc1CN[C@H]1C[C@](C)(O)C1 [A-92] | ≥ 10.19 | 15.1 |  | 
6 | COc1nc(-c2cccc(-c3cccc4c3CC[C@@H]4Nc3nc(OC)c(CNCCC(=O)O)nc3C(F)(F)F)c2Cl)ccc1CN[C@H]1C[C@](C)(O)C1 [A-93] | ≥ 10.19 | 83 |  | 
7 | COc1nc(-c2cccc(-c3cccc4c3CC[C@@H]4Nc3nc(OC)c(CN[C@H](C(=O)O)C4CC4)nc3C(F)(F)F)c2Cl)ccc1CN[C@H]1C[C@](C)(O)C1 [A-94] | ≥ 10.19 | 20.7 |  | 
8 | COc1nc(-c2cccc(-c3cccc4c3CC[C@@H]4Nc3nc(OC)c(CNC(C)(C)C(=O)O)nc3C(F)(F)F)c2Cl)ccc1CN[C@H]1C[C@](C)(O)C1 [A-95] | ≥ 10.19 | 21.2 |  | 
9 | COc1nc(-c2cccc(-c3cccc4c3CC[C@@H]4Nc3nc(OC)c(CN(C)[C@@H](C)C(=O)O)nc3C(F)(F)F)c2Cl)ccc1CNC[C@@H]1CCC(=O)N1 [A-96] | ≥ 10.19 | 3.97 |  | 
10 | COc1nc(-c2cccc(-c3cccc4c3CC[C@@H]4Nc3nc(OC)c(CN[C@@H](C)C(=O)N(C)C)nc3C(F)(F)F)c2Cl)ccc1CNC[C@@H]1CCC(=O)N1 [A-97] | ≥ 10.19 | 6.28 |  | 
11 | COc1nc(-c2cccc(-c3cccc4c3CC[C@@H]4Nc3nc(OC)c(CN[C@@H](C)C(N)=O)cc3C(F)(F)F)c2Cl)ccc1CNC[C@@H]1CCC(=O)N1 [A-98] | ≥ 10.19 | 40.3 |  | 
12 | COC(=O)[C@H](C)NCc1nc(C(F)(F)F)c(N[C@H]2CCc3c(-c4cccc(-c5ccc(CNC[C@@H]6CCC(=O)N6)c(OC)n5)c4Cl)cccc32)nc1OC [A-99] | 9.40 | 110 |  | 
13 | COC[C@H](NCc1nc(C(F)(F)F)c(N[C@H]2CCc3c(-c4cccc(-c5ccc(CNC[C@@H]6CCC(=O)N6)c(OC)n5)c4Cl)cccc32)nc1OC)C(=O)O [A-100] | ≥ 10.19 | 7.11 |  | 
14 | COc1nc(-c2cccc(-c3cccc4c3CC[C@@H]4Nc3nc(OC)c(CN[C@H](C(=O)O)C4CC4)nc3C(F)(F)F)c2Cl)ccc1CNC[C@@H]1CCC(=O)N1 [A-101] | ≥ 10.19 | 3.9 |  | 
15 | COc1nc(-c2cccc(-c3cccc4c3CC[C@@H]4Nc3nc(OC)c(CN[C@@H](C)C(N)=O)nc3C(F)(F)F)c2Cl)ccc1CNC[C@@H]1CCC(=O)N1 [A-102] | ≥ 10.19 | 43.1 |  | 
16 | COc1nc(-c2cccc(-c3cccc4c3CC[C@@H]4Nc3nc(OC)c(CNCC(N)=O)nc3C(F)(F)F)c2Cl)ccc1CNC[C@@H]1CCC(=O)N1 [A-103] | ≥ 10.19 | 40.2 |  | 
17 | CC[C@H](NCc1nc(C(F)(F)F)c(N[C@H]2CCc3c(-c4cccc(-c5ccc(CNC[C@@H]6CCC(=O)N6)c(OC)n5)c4Cl)cccc32)nc1OC)C(=O)O [A-104] | ≥ 10.19 | 16.6 |  | 
18 | COc1nc(-c2cccc(-c3cccc4c3CC[C@@H]4Nc3nc(OC)c(CN[C@H](C(=O)O)C(C)C)nc3C(F)(F)F)c2Cl)ccc1CNC[C@@H]1CCC(=O)N1 [A-105] | ≥ 10.19 | 40.6 |  | 
19 | COc1nc(-c2cccc(-c3cccc4c3CC[C@@H]4Nc3nc(OC)c(CN[C@@H](C)C(=O)O)nc3C(F)(F)F)c2Cl)ccc1CNC[C@@H]1CCC(=O)N1 [A-106] | ≥ 10.19 | 5.04 |  | 
20 | COc1nc(-c2cccc(-c3cccc4c3CC[C@@H]4Nc3nc(OC)c(CNCC(=O)O)nc3C(F)(F)F)c2Cl)ccc1CNC[C@@H]1CCC(=O)N1 [A-107] | ≥ 10.19 | 8.64 |  | 
21 | COc1cc(-c2cccc(-c3cccc4c3CC[C@@H]4Nc3nc(OC)c(CNCC(=O)O)nc3C(F)(F)F)c2Cl)ccc1CNC1CC(O)(CF)C1 (stereo partly drawn) [A-108] | ≥ 10.19 | 6.64 |  | 
22 | COc1nc(-c2cccc(-c3cccc4c3CC[C@@H]4Nc3nc(OC)c(CNCC(=O)O)nc3C(F)(F)F)c2Cl)ccc1CN[C@@H]1CCCC[C@@H]1O [A-109] | ≥ 10.19 | 8.98 |  | 
23 | COc1nc(-c2cccc(-c3cccc4c3CC[C@@H]4Oc3nc(OC)c(CNC(C)(C)C(=O)O)cc3C(F)(F)F)c2Cl)ccc1CN[C@H]1C[C@](C)(O)C1 [B-1] |  |  | 10.19 | 1.11

Row | Structure (SMILES) | pIC50 (PD-1/PD-L1; [1]) | AC50 (PD-L1; [2]) [nM] | pIC50 (PD-1/PD-L1; [3]) | AC50 (PD-L1; [4]) [nM]
24 | COc1nc(-c2cccc(-c3cccc4c3CC[C@@H]4Oc3nc(OC)c(CN4CC[C@@H](C(=O)O)C4)cc3C(F)(F)F)c2Cl)ccc1CN[C@H]1C[C@](C)(O)C1 [B-2] |  |  | 10.19 | 17.5
25 | COc1nc(-c2cccc(-c3cccc4c3CC[C@@H]4Oc3nc(OC)c(CN4CC[C@@H]5C[C@@]54C(=O)O)cc3C(F)(F)F)c2Cl)ccc1CN[C@H]1C[C@](C)(O)C1 [B-3] |  |  | 10.18 | 120
26 | COc1nc(-c2cccc(-c3cccc4c3CC[C@@H]4Oc3nc(OC)c(CN4CC5(C(=O)O)CCC4CC5)cc3C(F)(F)F)c2Cl)ccc1CN[C@H]1C[C@](C)(O)C1 [B-4] |  |  | 10.19 | 20.9
27 | COc1nc(-c2cccc(-c3cccc4c3CC[C@@H]4Oc3nc(OC)c(CN4CCC[C@H]4C(=O)O)cc3C(F)(F)F)c2Cl)ccc1CNC[C@@H]1CCC(=O)N1 [B-5] |  |  | 10.19 | 2.67
28 | COc1nc(-c2cccc(-c3cccc4c3CC[C@@H]4Oc3nc(OC)c(CN4CCC[C@@H]4C(=O)O)cc3C(F)(F)F)c2Cl)ccc1CNC[C@@H]1CCC(=O)N1 [B-6] |  |  | 10.19 | 7.96
29 | COc1nc(-c2cccc(-c3cccc4c3CC[C@@H]4Oc3nc(OC)c(CN4CC[C@H](C)[C@H]4C(=O)O)cc3C(F)(F)F)c2Cl)ccc1CNC[C@@H]1CCC(=O)N1 [B-7] |  |  | 10.19 | 4.04
30 | COc1nc(-c2cccc(-c3cccc4c3CC[C@@H]4Oc3nc(OC)c(CN4CCC[C@]4(C)C(=O)O)cc3C(F)(F)F)c2Cl)ccc1CNC[C@@H]1CCC(=O)N1 [B-8] |  |  | 10.19 | 13.2
31 | COc1nc(-c2cccc(-c3cccc4c3CC[C@@H]4Oc3nc(OC)c(CN4CC(C(=O)O)C4C)cc3Cl)c2Cl)ccc1CNC[C@@H]1CCC(=O)N1 (stereo partly drawn) [B-9] |  |  | 10.19 | 19.2
32 | COc1nc(-c2cccc(-c3cccc4c3CC[C@@H]4Oc3nc(OC)c(CN4CC(C)(C(=O)O)C4)cc3Cl)c2Cl)ccc1CNC[C@@H]1CCC(=O)N1 [B-10] |  |  | 10.19 | 5.4
33 | COc1nc(-c2cccc(-c3cccc4c3CC[C@@H]4Oc3nc(OC)c(CN4CC5CCC(C(=O)O)(C5)C4)cc3Cl)c2Cl)ccc1CNC[C@@H]1CCC(=O)N1 (stereo partly drawn) [B-11] |  |  | 10.18 | 71.4
34 | COc1nc(-c2cccc(-c3cccc4c3CC[C@@H]4Oc3nc(OC)c(CNC(C)(C)C(=O)O)cc3C(F)(F)F)c2Cl)ccc1CNC[C@@H]1CCC(=O)N1 [B-12] |  |  | 10.19 | 1.12
35 | COc1nc(-c2cccc(-c3cccc4c3CC[C@@H]4Oc3nc(OC)c(CN4CCC[C@@]4(C)C(=O)O)cc3C(F)(F)F)c2Cl)ccc1CNC[C@@H]1CCC(=O)N1 [B-13] |  |  | 10.19 | 3.92
36 | COc1nc(O[C@H]2CCc3c(-c4cccc(-c5ccc(CNC[C@@H]6CCC(=O)N6)c(OCC#N)n5)c4Cl)cccc32)c(Cl)cc1CNC1(C(=O)O)CC1 [B-14] |  |  | 10.19 | 15.7
37 | COc1nc(O[C@H]2CCc3c(-c4cccc(-c5ccc(CNC[C@@H]6CCC(=O)N6)c(OCC#N)n5)c4Cl)cccc32)c(Cl)cc1CN1CC[C@@H](C(=O)O)C1 [B-19] |  |  | 10.19 | 9.33
38 | COc1nc(-c2cccc(-c3cccc4c3CC[C@@H]4Oc3nc(OC)c(CNC45CC(C(=O)O)(C4)C5)cc3Cl)c2Cl)ccc1CNC[C@@H]1CCC(=O)N1 [B-20] |  |  | 10.19 | 33.7
39 | CNc1nc(-c2cccc(-c3cccc4c3CC[C@@H]4Oc3nc(OC)c(CN4CC[C@@H](C(=O)O)C4)cc3Cl)c2Cl)cnc1CN1CC(C)(O)C1 [B-21] |  |  | 10.19 | 31.2
40 | COc1nc(-c2cccc(-c3cccc4c3CC[C@@H]4Oc3nc(OCC#N)c(CNC4(C(=O)O)CC4)cc3C(F)(F)F)c2Cl)ccc1CNC[C@@H]1CCC(=O)N1 [B-22] |  |  | 10.13 | 13.4
41 | COc1nc(-c2cccc(-c3cccc4c3CC[C@@H]4Oc3nc(OC)c(CN4CC5(C(=O)O)CCC4CC5)cc3Cl)c2Cl)ccc1CNC1CC2CCC1N2C(C)=O (stereo partly drawn) [B-23] |  |  | 10.19 | 62.8
42 | COc1nc(-c2cccc(-c3cccc4c3CC[C@@H]4Oc3nc(OC)c(CN4CC5(CC(C(=O)O)C5)C4)cc3Cl)c2Cl)ccc1CNC[C@@H]1CCC(=O)N1 [B-24] |  |  | 10.19 | 19.4
43 | COc1nc(-c2cccc(-c3cccc4c3CC[C@@H]4Oc3nc(OC)c(CN4CCC(C)(C)C(C(=O)O)C4)cc3Cl)c2Cl)ccc1CNC[C@@H]1CCC(=O)N1 (stereo partly drawn) [B-25] |  |  | 10.19 | 17.8
44 | COc1nc(-c2cccc(-c3cccc4c3CC[C@@H]4Oc3nc(OC)c(CN4CCC5(C(=O)O)CC45)cc3Cl)c2Cl)ccc1CNC[C@@H]1CCC(=O)N1 (stereo partly drawn) [B-26] |  |  | 10.19 | 18.4
45 | COc1nc(-c2cccc(-c3cccc4c3CC[C@@H]4Oc3nc(OC)c(CNCCC(=O)O)cc3Cl)c2Cl)ccc1CNC[C@@H]1CCC(=O)N1 [B-27] |  |  | 10.19 | 11.2
